The values that follow come from publication PMC10859961, “Ir(III) Half-Sandwich Photosensitizers with a π-Expansive Ligand for Efficient Anticancer Photodynamic Therapy” (Journal of Medicinal Chemistry, 2024).

Experiment [1] relates to calf thymus DNA (CT-DNA). Nature of the experiment: Competitive EtBr displacement assay. The experiment is classed as binding. The settings on record: CT-DNA saturated with EtBr; 1 h, room temperature; read-out: C50 (50% reduction of EtBr fluorescence). As to the method:
To investigate the capacity of the complexes to intercalate into DNA, the competitive ethidium displacement assay was carried out as previously described[149] with minor modifications. Stock solutions of 20 μM calf thymus DNA (CT-DNA) and 25 μM Ethidium bromide (EtBr) were prepared in saline TE (50 mM NaCl, 10 mM tris(hydroxymethyl) aminomethane–HCl, 0.1 mM ethylenediaminetetracetic acid (EDTA), pH 7.4). Serial dilutions of metal complexes were prepared at concentrations ranging from 20 to 400 μM from a 1 mM stock solution containing 20% DMSO. The assay was carried out by mixing 25 μL of CT-DNA and 25 μL of EtBr with 50 μL of each compound dilution, on a black 96-well plate. The plate was incubated at room temperature for 1 h and the fluorescence was measured on a Synergy 4 microplate reader (Biotek, Winooski), with excitation wavelength set to 500 nm, and emission wavelength set to 530–800 nm. The fluorescence emission at 590 nm was used to measure the C50, corresponding to the concentration of compound required to induce a 50% decrease in the fluorescence of the EtBr. Experiments were performed in triplicate.

Experiment [2] can be described thus: 1O2 quantum yield determination with ABDA. The settings on record: H2O/DMSO (95:5); 470 nm blue light. As to the method:
Fresh stock air-equilibrated solutions of photosensitizers 1–2 and 7–8 (1.00 × 10^–3 M) and ABDA (6.00 × 10^–4 M) in H2O/DMSO (95:5) were prepared. In a quartz cell, 0.50 mL of ABDA solution, 0.03 mL of complex solution, and 2.47 mL of H2O/DMSO (95:5) were mixed to prepare a final solution with 1.00 × 10^–4 M ABDA and 1.00 × 10^–5 M complex. The final solutions were studied by recording UV–vis absorption spectra at room temperature under blue light irradiation (λexc = 470 nm, “Medusa” photoreactor) for 30 s irradiation intervals during a total exposure period of 5 min. Absorption UV–vis spectra were recorded after every irradiation interval.
The consumption of ABDA probe was measured by monitoring its absorbance intensity decrease at 402 nm with irradiation time. ^1O2 generation quantum yield (ϕΔ) was calculated from eq 1 using Rose Bengal or [Ru(bpy)3]^2+ as reference. In this case, the ϕΔ values of the references in H2O/DMSO (95:5) are 0.76 for Rose Bengal[73] and 0.18 for [Ru(bpy)3]Cl2.[136] The reproducibility of the results was confirmed by performing each experiment three times.

The subject of experiment [3] is A549 cells. In words: Trypan blue exclusion test. The note with it: complexes at respective IC50 in the dark, 24 h. It counts as cell-based, human. As to the method: To assess the cytotoxicity of the complexes, A549 cells were seeded in 96-well plates and treated with the complexes at the respective IC50,dark value. After 24 h of incubation, 10 μL of Trypan Blue (0.4% solution; Sigma) was added directly to the wells to avoid loss of dead cells in the treatment washes. After 10 min, images of the cells were captured using an Olympus CKX41 Microscope equipped with LCmicro software (Olympus).

Experiment [4] relates to A549 cells. In words: Intracellular ROS production (CM-H2DCFDA, flow cytometry). The settings on record: for elevation of ROS levels (median fluorescence): 10 nM, 4 h then blue light 1 h, vs untreated control; for increase in cellular ROS content: complexes at IC50,dark, 5 h, no irradiation. It counts as cell-based, human. As to the method: A549 cells were seeded onto 24-well plates (5 × 10^4 cells/well) 24 h before the experiment. The cells were incubated for 4 h with complexes 2, 4, 6, and 8 at 10 nM and then photoactivated or kept in the dark for an additional hour. In addition, the cells were treated for 5 h with the complexes at the corresponding IC50,dark without irradiation. The cells exposed for 30 min to 0.5 μM FeCl2 and 0.04% H2O2, as ROS inducers, were used as positive control. After the treatments, the cells were washed with PBS and harvested by trypsinization. Intracellular ROS were detected by incubation with the chloromethyl 2′,7′-dichlorodihydrofluorescein diacetate (CM-H2DCFDA; Invitrogen) probe at 2.5 μM for 30 min at 37 °C. After washing with PBS, the median fluorescence of 1 × 10^4 cells was measured with a NovoCyte flow cytometer (Agilent Technologies) equipped with the NovoExpress software. The fold increase versus control untreated cells was determined for each treatment in three independent experiments.
A general note: Flow cytometry measures light scatter and fluorescence of single cells or particles in a stream.

Experiment [5] concerns A549 cells. In words: Superoxide anion production (ROS-ID Superoxide Detection Kit). It counts as cell-based, human. The settings on record: 10 nM, photoactivated with blue light. As to the method:
The types of ROS generated by the treatments were also investigated. Superoxide anion (O2^•–) production was monitored using the ROS-ID Superoxide Detection Kit (Enzo Life Sciences), which contains a cell-permeable probe that selectively emits orange fluorescence upon reacting with O2^•–. Following the treatments, cells were harvested and incubated with the probe for 30 min at 37 °C. Fluorescence emission from 1 × 10^4 cells was measured by flow cytometry (Ex/Em: 550/620 nm) and compared to that of control untreated cells. In addition, hydrogen peroxide (H2O2) generation was measured using the Hydrogen Peroxide Assay Kit (Cell-based) (Abcam). […] After 1 h of incubation at 37 °C, the median fluorescence of 1 × 10^4 cells was determined by flow cytometry (Ex/Em = 490/520 nm) and compared to that of control cells. All experiments were conducted in triplicate.

Experiment [6] relates to A549 cells. In words: Mitochondrial membrane potential (JC-1, flow cytometry). It counts as cell-based, human. The note with it: 10 nM, blue light 1 h. As to the method: A549 cells were seeded onto 24-well plates. 24 h later, cells were incubated for 4 h with complexes 2, 4, 6, and 8 at 10 nM and then photoactivated or kept in the dark for an additional hour. Next, the cells were washed with PBS and harvested by trypsinization. Mitochondrial membrane potential changes were immediately measured by the JC-1 (5,5′,6,6′-tetrachloro-1,1′,3,3′-tetraethylbenzimidazolocarbo-cyanine iodide) Mitochondrial Membrane Potential Detection Kit (Biotium), according to the manufacturer’s instructions. As positive control, the cells were coincubated with CCCP (Sigma) at 5 μM for 30 min to disrupt the mitochondrial membrane potential. For each treatment, the fluorescence of 1 × 10^4 cells was analyzed by a Novocyte flow cytometer. JC-1 red aggregates were detected at a wavelength of 590 nm (FL2) and JC-1 green monomers at 529 nm (FL1).

In experiment [7] the test system is A549 cells. In words: Lysosome damage (Acridine Orange, confocal microscopy). The experiment is classed as cell-based, human. The note with it: 10 nM, blue light irradiation. As to the method: For confocal microscopy experiments, A549 cells were seeded onto glass-bottom 8-well chamber slides (Ibidi) (5 × 10^4 cells per well) and allowed to attach overnight. In each experiment, the cells were treated with the complexes at the indicated conditions and washed with PBS before staining. For mitochondria visualization, the cells were incubated with the fluorescent dye MitoTracker Red CMXRos (Molecular Probes) at 200 nM in serum-free culture medium for 30 min at 37 °C. Cell nuclei were counterstained in blue with Hoechst 33342 (Invitrogen) diluted 1:4000 in DMEM without phenol red. To analyze lysosomal damage, the cells were incubated with AO at 5 μM at 37 °C for 15 min. Before observation, the cells were washed twice with PBS and fresh growth medium without phenol red was added. Cell images were immediately obtained by a Nikon A1R confocal microscope and images were analyzed using the NIS-Elements AR (Nikon, Japan) and the Fiji/ImageJ software.

On to `Cc1c(C)c(C)[c-](C)c1C.F[B-](F)(F)F.c1ccc(Cn2cc[n+]([Ir]3[c]4cccc5c6nc7ccccc7nc6c6ccc[n+]3c6c45)c2)cc1` [complex 7, [(η^5-C5Me5)Ir(bzIm)(pbpz)]BF4], for which the IC50 in experiment [1] came to 95.4 µM. Further, in experiment [2], the “1O2 generation quantum yield (ϕΔ), ABDA” value came to 0.0526.

`Cc1c(C)c(C)[c-](C)c1C.[Cl][Ir]1[c]2cccc3c4nc5ccccc5nc4c4ccc[n+]1c4c23` [complex 1, [(η^5-C5Me5)IrCl(pbpz)]]: in experiment [1], the IC50 is 192 µM. The “1O2 generation quantum yield (ϕΔ), ABDA” value in experiment [2] worked out at 0.1913.

For `Cc1c(C)c(C)[c-](C)c1C.F[B-](F)(F)F.c1ccc(Cn2cc[n+]([Ir]3[c]4cccc5c6nc7cc8ccccc8cc7nc6c6ccc[n+]3c6c45)c2)cc1` [complex 8, [(η^5-C5Me5)Ir(bzIm)(pbpn)]BF4], the “proportion of cells with uptake of trypan blue dye” value (from here on “proportion of cells”) in experiment [3] is recorded as 23%. Also, in experiment [4], the “elevation of ROS levels (median fluorescence)” value (from here on “elevation of ROS levels”) is on record as 5.6 fold and the “increase in cellular ROS content” value was 1.7 fold. Further, in experiment [5], the “superoxide anion (O2•–) increase in mean fluorescence” value (“superoxide anion (O2•–) increase” below) is recorded as 2.6 fold. In experiment [6], the “cells with red fluorescence (JC-1 aggregates), upper right quadrant” value (from here on “cells … upper right quadrant”) stood at 6.6%. In addition, in experiment [1], the IC50 was 15.9 µM. Besides, in experiment [7], the “red fluorescent particles (lysosomes, AO staining)” value (shortened to “red fluorescent particles”) is given as “completely disappeared”. Moreover, the “1O2 generation quantum yield (ϕΔ), ABDA” value in experiment [2] is recorded as 0.4986.

In the case of `Cc1c(C)c(C)[c-](C)c1C.F[B-](F)(F)F.c1ccc2cc3nc4c5ccc[n+]6c5c5[c](cccc5c4nc3cc2c1)[Ir]6[n+]1cc[nH]c1` [complex 4, [(η^5-C5Me5)Ir(Im)(pbpn)]BF4], the “proportion of cells” value in experiment [3] is listed as 54%. For the same compound, in experiment [4], the “elevation of ROS levels” value stood at 2.2 fold and the “increase in cellular ROS content” value came to 2.8 fold. The “superoxide anion (O2•–) increase” value in experiment [5] stood at 2.4 fold. Also, in experiment [6], the “cells … upper right quadrant” value is recorded as 34.3%. Moreover, the IC50 in experiment [1] was determined as 15.9 µM. Besides, the “red fluorescent particles” value in experiment [7] was “completely disappeared”.

In the case of `Cc1c(C)c(C)[c-](C)c1C.F[B-](F)(F)F.c1ccc2cc3nc4c5ccc[n+]6c5c5[c](cccc5c4nc3cc2c1)[Ir]6[n+]1ccn(CCN2CCCCC2)c1` [complex 6, [(η^5-C5Me5) Ir(Imepip)(pbpn)]BF4], in experiment [3], the “proportion of cells” value was determined as 53%. In experiment [4], the “elevation of ROS levels” value is given as 2.4 fold and the “increase in cellular ROS content” value is 2.6 fold. In experiment [5], the “superoxide anion (O2•–) increase” value came out at 2.8 fold. Moreover, the “cells … upper right quadrant” value in experiment [6] was 16.9%. Further, the IC50 in experiment [1] is 32.8 µM. Further, in experiment [7], the “red fluorescent particles” value is given as “completely disappeared”.

In the case of `Cc1c(C)c(C)[c-](C)c1C.F[B-](F)(F)F.c1ccc2nc3c4ccc[n+]5c4c4[c](cccc4c3nc2c1)[Ir]5[n+]1ccn(CCN2CCCCC2)c1` [complex 5, [(η^5-C5Me5)Ir(Imepip)(pbpz)]BF4], in experiment [1], the IC50 is 54.6 µM.
